Assay results as given in PubChem BioAssay (NCI).
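Briefly, cells in 96-well plates were exposed to five compound concentrations for 48 h, and endpoints were estimated by linear interpolation. The concentration for 50% growth inhibition is given as GI50. TGI is the concentration that stops growth completely.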

How the values were obtained:
Experiment in all cases: NCI tumour cell line growth inhibition, 48 h
OVCAR-4 ovarian = tested on: OVCAR-4 ovarian
HCT-15 colon = tested on: HCT-15 colon
NCI-H226 lung = tested on: NCI-H226 lung
SK-OV-3 ovarian = tested on: SK-OV-3 ovarian
IGROV1 ovarian = tested on: IGROV1 ovarian
HT29 colon = tested on: HT29 colon
MDA-MB-435 = tested on: MDA-MB-435
786-0 renal = tested on: 786-0 renal
U251 CNS = tested on: U251 CNS
MDA-MB-231 breast = tested on: MDA-MB-231 breast
SR leukemia = tested on: SR leukemia
SF-295 CNS = tested on: SF-295 CNS
HS 578T breast = tested on: HS 578T breast
UACC-62 melanoma = tested on: UACC-62 melanoma
NCI/ADR-RES ovarian = tested on: NCI/ADR-RES ovarian
HCT-116 colon = tested on: HCT-116 colon
RPMI-8226 leukemia = tested on: RPMI-8226 leukemia
SW-620 colon = tested on: SW-620 colon
SK-MEL-28 melanoma = tested on: SK-MEL-28 melanoma
PC-3 prostate = tested on: PC-3 prostate
A498 renal = tested on: A498 renal
MCF7 breast = tested on: MCF7 breast
OVCAR-5 ovarian = tested on: OVCAR-5 ovarian
COLO 205 colon = tested on: COLO 205 colon
TK-10 renal = tested on: TK-10 renal
HL-60(TB) leukemia = tested on: HL-60(TB) leukemia
CAKI-1 renal = tested on: CAKI-1 renal
NCI-H522 lung = tested on: NCI-H522 lung
CCRF-CEM leukemia = tested on: CCRF-CEM leukemia
SF-539 CNS = tested on: SF-539 CNS
MOLT-4 leukemia = tested on: MOLT-4 leukemia
OVCAR-8 ovarian = tested on: OVCAR-8 ovarian
OVCAR-3 ovarian = tested on: OVCAR-3 ovarian
SK-MEL-5 melanoma = tested on: SK-MEL-5 melanoma
UO-31 renal = tested on: UO-31 renal
SN12C renal = tested on: SN12C renal
MALME-3M melanoma = tested on: MALME-3M melanoma
ACHN renal = tested on: ACHN renal
NCI-H23 lung = tested on: NCI-H23 lung
NCI-H460 lung = tested on: NCI-H460 lung
EKVX NSCLC = tested on: EKVX NSCLC
T-47D breast = tested on: T-47D breast
KM12 colon = tested on: KM12 colon
A549 NSCLC = tested on: A549 NSCLC
K-562 leukemia = tested on: K-562 leukemia
SF-268 CNS = tested on: SF-268 CNS
M14 melanoma = tested on: M14 melanoma
UACC-257 melanoma = tested on: UACC-257 melanoma
DU-145 prostate = tested on: DU-145 prostate
RXF 393 renal = tested on: RXF 393 renal
HOP-92 NSCLC = tested on: HOP-92 NSCLC
SNB-19 CNS = tested on: SNB-19 CNS
SK-MEL-2 melanoma = tested on: SK-MEL-2 melanoma
BT-549 breast = tested on: BT-549 breast
SNB-75 CNS = tested on: SNB-75 CNS
HCC-2998 colon = tested on: HCC-2998 colon
HOP-62 NSCLC = tested on: HOP-62 NSCLC

C[C@@H]1CC[C@H]2C(COCC3=C(C(F)(F)F)O[C@@H]4O[C@@]5(C)CC[C@H]6[C@H](C)CC[C@@H]3[C@@]46OO5)=C(C(F)(F)F)O[C@@H]3O[C@@]4(C)CC[C@@H]1[C@]32OO4
GI50 (OVCAR-4 ovarian): 0.0251 µM | TGI (OVCAR-4 ovarian): > 100 µM | GI50 (HCT-15 colon): < 0.01 µM | TGI (HCT-15 colon): > 100 µM | GI50 (NCI-H226 lung): 0.047 µM | TGI (NCI-H226 lung): > 100 µM | GI50 (SK-OV-3 ovarian): > 100 µM | TGI (SK-OV-3 ovarian): > 100 µM | TGI (IGROV1 ovarian): > 100 µM | GI50 (HT29 colon): < 0.01 µM | TGI (HT29 colon): > 100 µM | GI50 (MDA-MB-435): < 0.0108 µM | TGI (MDA-MB-435): > 100 µM | GI50 (786-0 renal): 0.182 µM | TGI (786-0 renal): > 100 µM | GI50 (U251 CNS): < 0.01 µM | TGI (U251 CNS): > 100 µM | GI50 (MDA-MB-231 breast): 0.037 µM | TGI (MDA-MB-231 breast): > 100 µM | GI50 (SR leukemia): < 0.01 µM | TGI (SR leukemia): > 100 µM | GI50 (SF-295 CNS): 0.1 µM | GI50 (HS 578T breast): 0.152 µM | TGI (HS 578T breast): > 100 µM | GI50 (UACC-62 melanoma): 0.0609 µM | TGI (UACC-62 melanoma): > 100 µM | GI50 (NCI/ADR-RES ovarian): 0.543 µM | TGI (NCI/ADR-RES ovarian): > 100 µM | GI50 (HCT-116 colon): < 0.01 µM | TGI (HCT-116 colon): > 100 µM | GI50 (RPMI-8226 leukemia): < 0.01 µM | TGI (RPMI-8226 leukemia): > 100 µM | GI50 (SW-620 colon): < 0.01 µM | TGI (SW-620 colon): > 100 µM | TGI (SK-MEL-28 melanoma): > 100 µM | GI50 (PC-3 prostate): < 0.01 µM | TGI (PC-3 prostate): > 100 µM | GI50 (A498 renal): 32.7 µM | TGI (A498 renal): > 100 µM | GI50 (MCF7 breast): < 0.01 µM | TGI (MCF7 breast): > 100 µM | GI50 (OVCAR-5 ovarian): 0.0101 µM | TGI (OVCAR-5 ovarian): > 100 µM | GI50 (COLO 205 colon): < 0.01 µM | TGI (COLO 205 colon): 0.0835 µM | GI50 (TK-10 renal): 0.143 µM | TGI (TK-10 renal): > 100 µM | GI50 (HL-60(TB) leukemia): < 0.01 µM | TGI (HL-60(TB) leukemia): > 100 µM | GI50 (CAKI-1 renal): 0.205 µM | TGI (CAKI-1 renal): > 100 µM | GI50 (NCI-H522 lung): < 0.01 µM | TGI (NCI-H522 lung): 0.073 µM | GI50 (CCRF-CEM leukemia): < 0.0284 µM | TGI (CCRF-CEM leukemia): > 100 µM | GI50 (SF-539 CNS): < 0.01 µM | TGI (SF-539 CNS): > 100 µM | GI50 (MOLT-4 leukemia): < 0.0233 µM | TGI (MOLT-4 leukemia): > 100 µM | GI50 (OVCAR-8 ovarian): < 0.0178 µM | TGI (OVCAR-8 ovarian): > 100 µM | GI50 (OVCAR-3 ovarian): 0.0365 µM | TGI (OVCAR-3 ovarian): > 100 µM | GI50 (SK-MEL-5 melanoma): 0.0109 µM | TGI (SK-MEL-5 melanoma): > 100 µM | GI50 (UO-31 renal): < 0.01 µM | TGI (UO-31 renal): > 100 µM | GI50 (SN12C renal): 0.0439 µM | TGI (SN12C renal): > 100 µM | GI50 (MALME-3M melanoma): < 0.01 µM | TGI (MALME-3M melanoma): > 100 µM | GI50 (ACHN renal): 0.028 µM | TGI (ACHN renal): > 100 µM | GI50 (NCI-H23 lung): < 0.01 µM | TGI (NCI-H23 lung): > 100 µM | GI50 (NCI-H460 lung): < 0.01 µM | TGI (NCI-H460 lung): > 100 µM | GI50 (EKVX NSCLC): 0.0333 µM | TGI (EKVX NSCLC): > 100 µM | GI50 (T-47D breast): < 0.01 µM | TGI (T-47D breast): > 100 µM | GI50 (KM12 colon): < 0.01 µM | TGI (KM12 colon): > 100 µM | GI50 (A549 NSCLC): 0.0126 µM | TGI (A549 NSCLC): > 100 µM | GI50 (K-562 leukemia): < 0.01 µM | TGI (K-562 leukemia): > 100 µM

Cc1c(/C=N\NC(=S)N2CCN(C(=S)N/N=C\c3c(C)n(C)n(-c4ccccc4)c3=O)CC2)c(=O)n(-c2ccccc2)n1C
TGI (SF-268 CNS): > 100 µM | TGI (OVCAR-4 ovarian): > 100 µM | TGI (HCT-15 colon): > 100 µM | TGI (M14 melanoma): > 100 µM | TGI (NCI-H226 lung): > 100 µM | TGI (SK-OV-3 ovarian): > 100 µM | TGI (UACC-257 melanoma): 97.3 µM | TGI (HT29 colon): 34.9 µM | TGI (DU-145 prostate): > 100 µM | TGI (MDA-MB-435): 64.7 µM | TGI (786-0 renal): > 100 µM | TGI (U251 CNS): > 100 µM | TGI (MDA-MB-231 breast): 73.9 µM | TGI (SR leukemia): > 100 µM | TGI (RXF 393 renal): > 100 µM | TGI (SF-295 CNS): > 100 µM | TGI (HS 578T breast): > 100 µM | TGI (UACC-62 melanoma): > 100 µM | TGI (NCI/ADR-RES ovarian): > 100 µM | TGI (HCT-116 colon): > 100 µM | TGI (SW-620 colon): > 100 µM | TGI (HOP-92 NSCLC): > 100 µM | TGI (PC-3 prostate): > 100 µM | TGI (A498 renal): > 100 µM | TGI (SNB-19 CNS): > 100 µM | TGI (OVCAR-5 ovarian): > 100 µM | TGI (COLO 205 colon): > 100 µM | TGI (TK-10 renal): 33.9 µM | TGI (CAKI-1 renal): > 100 µM | TGI (NCI-H522 lung): > 100 µM | TGI (SK-MEL-2 melanoma): 92.7 µM | TGI (BT-549 breast): > 100 µM | TGI (SF-539 CNS): > 100 µM | TGI (MOLT-4 leukemia): > 100 µM | TGI (OVCAR-3 ovarian): > 100 µM | TGI (SK-MEL-5 melanoma): > 100 µM | TGI (UO-31 renal): > 100 µM | TGI (SNB-75 CNS): 48.7 µM | TGI (MALME-3M melanoma): > 100 µM | TGI (ACHN renal): > 100 µM | TGI (HCC-2998 colon): > 100 µM | TGI (NCI-H23 lung): > 100 µM | TGI (NCI-H460 lung): > 100 µM | TGI (EKVX NSCLC): > 100 µM | TGI (T-47D breast): > 100 µM | TGI (KM12 colon): > 100 µM | TGI (HOP-62 NSCLC): > 100 µM | TGI (A549 NSCLC): > 100 µM
